The values that follow come from ChEMBL document CHEMBL1201862, “PubChem BioAssay data set” (2004).

Some test systems named below: 786-0; RXF 393; NCI-H226; NCI-H460; ACHN; IGROV-1; RPMI-8226; OVCAR-3; PC-3; SF-539; COLO 205; A549; HOP-62; MCF7; TK-10; HCT-116; LOX IMVI; SK-MEL-2; NCI-H23; HT-29.
Common to all, as to test: growth of human tumour cells (NCI), 48 h

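Grown in 96-well plates, cells were treated for 48 hours with each compound at five concentrations. Insufficient inhibition: endpoint recorded as highest concentration tested. GI50: concentration for 50% inhibition of growth.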 The source made the active and inactive calls. Cut-off read from the data, not from the text of the source: active = GI50 up to about 1.1 µM and inactive = higher.

Regarding `CC(C)(C)COS(=O)OCC(C)(C)C`, the GI50 with 786-0, with RXF 393, with NCI-H226, in the experiment on NCI-H460, in the experiment on ACHN and with IGROV-1 was > 100 µM (inactive) throughout. Moreover, the GI50 in the experiment on RPMI-8226, in the experiment on OVCAR-3, in the experiment with PC-3, in the experiment with SF-539, in the experiment on COLO 205 and with A549 was > 100 µM (inactive) each time. Further, the GI50 with HOP-62, in the experiment with MCF7, in the experiment on TK-10, in the experiment with HCT-116, in the experiment on LOX IMVI and with SK-MEL-2 was > 100 µM (inactive) throughout. In addition, the GI50 with NCI-H23 and in the experiment on HT-29 was > 100 µM (inactive) throughout.
Take `O=C(NC(=O)c1c(F)cccc1F)Nc1cccc(Oc2ncc(Cl)cn2)c1`: the GI50 was 40 µM (inactive) in the experiment with 786-0; 38.5 µM (inactive) in the experiment on RXF 393; 62.7 µM (inactive) in the experiment on NCI-H226; 4.51 µM (inactive) in the experiment with NCI-H460; 99.3 µM (inactive) in the experiment on ACHN; 33.4 µM (inactive) with IGROV-1. The GI50 with RPMI-8226 was > 94.8 µM (inactive); with OVCAR-3, 40.4 µM (inactive); in the experiment on PC-3 it was > 100 µM (inactive); in the experiment with SF-539, 23.3 µM (inactive); in the experiment on COLO 205, 3.85 µM (inactive); in the experiment on A549, > 39.9 µM (inactive). The GI50 in the experiment with HOP-62 was 29.6 µM (inactive); in the experiment on MCF7, > 100 µM (inactive); in the experiment with TK-10 it was > 100 µM (inactive); in the experiment with HCT-116 it was 8.79 µM (inactive); with LOX IMVI, 29.3 µM (inactive); with SK-MEL-2, > 51.6 µM (inactive). Also, the GI50 with NCI-H23 is > 100 µM (inactive); in the experiment on HT-29, 4.59 µM (inactive).
As for `Nc1ccc(Sc2c3ccccc3nc3ccccc23)cc1`, the GI50 in the experiment on 786-0 was 5.48 µM (inactive); with RXF 393, 18.7 µM (inactive); in the experiment on NCI-H226 it was 18.7 µM (inactive); with NCI-H460, 20.4 µM (inactive); with ACHN it was 12.3 µM (inactive); in the experiment with IGROV-1 it was 17.7 µM (inactive). Further, the GI50 is 2.82 µM (inactive) in the experiment with RPMI-8226; 15.6 µM (inactive) in the experiment on OVCAR-3; 13.1 µM (inactive) in the experiment on PC-3; 15.6 µM (inactive) with SF-539; 11.5 µM (inactive) with COLO 205; 33.3 µM (inactive) with A549. Also, the GI50 in the experiment with HOP-62 is 29.7 µM (inactive); with MCF7, 12.4 µM (inactive); in the experiment with TK-10, 13.4 µM (inactive); in the experiment with HCT-116 it was 10.8 µM (inactive); in the experiment on LOX IMVI it was 5.62 µM (inactive); in the experiment with SK-MEL-2, 16.9 µM (inactive). The GI50 in the experiment with NCI-H23 is 17.7 µM (inactive); in the experiment with HT-29 it was 15.8 µM (inactive).
Turning to `CCN(CC)c1ccc(/C=C/C(=O)c2cc(C(C)(C)C)c(O)c(C(C)(C)C)c2)cc1`, the GI50 in the experiment with 786-0 is 14.2 µM (inactive); in the experiment on RXF 393, 2.7 µM (inactive); in the experiment with NCI-H226 it was 39.3 µM (inactive); with NCI-H460, 14.9 µM (inactive); in the experiment with ACHN it was > 42.6 µM (inactive); with IGROV-1, 64 µM (inactive). For the same molecule, the GI50 in the experiment with RPMI-8226 is 4.94 µM (inactive); in the experiment on OVCAR-3, 10.2 µM (inactive); in the experiment with PC-3, 9.18 µM (inactive); in the experiment on SF-539, 3.19 µM (inactive); in the experiment on COLO 205, 4.62 µM (inactive); in the experiment on A549 it was 19.6 µM (inactive). Besides, the GI50 is 27 µM (inactive) with HOP-62; 3.64 µM (inactive) in the experiment with MCF7; 5.71 µM (inactive) with TK-10; 3.21 µM (inactive) in the experiment with HCT-116; 5.78 µM (inactive) with LOX IMVI; 6.76 µM (inactive) with SK-MEL-2. Moreover, the GI50 in the experiment with NCI-H23 was 9.77 µM (inactive); in the experiment on HT-29, 2.71 µM (inactive).
`CCOC(=O)CCC(NC(=O)c1ccc(Oc2nc3ccc(C(F)(F)F)cc3nc2-c2ccccc2)cc1)C(=O)OCC` (stereo not given): the GI50 in the experiment on 786-0 was 4.25 µM (inactive); in the experiment on RXF 393, 15.7 µM (inactive); in the experiment with NCI-H226, 4.32 µM (inactive); in the experiment with NCI-H460, 47.1 µM (inactive); with ACHN, 5.61 µM (inactive); in the experiment on IGROV-1 it was 22.7 µM (inactive). In addition, the GI50 was > 100 µM (inactive) in the experiment with RPMI-8226; 30.8 µM (inactive) in the experiment with OVCAR-3; > 58.3 µM (inactive) in the experiment with PC-3; 3.01 µM (inactive) in the experiment on SF-539; > 100 µM (inactive) with COLO 205; 24.2 µM (inactive) in the experiment with A549. The GI50 in the experiment on HOP-62 is 4.82 µM (inactive); in the experiment on MCF7, > 41.5 µM (inactive); with TK-10, 15.1 µM (inactive); in the experiment with HCT-116, 25.6 µM (inactive); in the experiment on LOX IMVI it was 28.6 µM (inactive); in the experiment on SK-MEL-2 it was 22.8 µM (inactive). The values for the GI50 in the experiment on NCI-H23 and in the experiment with HT-29 were 16.8 µM (inactive) and 5.15 µM (inactive), respectively.
`O=C(ON=c1c2ccccc2ccc2ccccc12)c1ccccc1`: the GI50 with 786-0 is 23.6 µM (inactive); with RXF 393, 17.9 µM (inactive); in the experiment with NCI-H226, 22.3 µM (inactive); in the experiment on NCI-H460, 43.2 µM (inactive); with ACHN, 34.9 µM (inactive); with IGROV-1, 24 µM (inactive). Besides, the GI50 with RPMI-8226 is 24.4 µM (inactive); with OVCAR-3, 23.5 µM (inactive); in the experiment with PC-3 it was 40.1 µM (inactive); with SF-539, 15.5 µM (inactive); in the experiment on COLO 205, 18.1 µM (inactive); with A549 it was 29.7 µM (inactive). In addition, the GI50 in the experiment with HOP-62 was 22 µM (inactive); with MCF7 it was 24 µM (inactive); with TK-10, > 75.9 µM (inactive); in the experiment with HCT-116 it was 13.9 µM (inactive); in the experiment on LOX IMVI, 18.4 µM (inactive); with SK-MEL-2, 30.1 µM (inactive). The GI50 in the experiment with NCI-H23 is 37.5 µM (inactive); in the experiment with HT-29, 28.2 µM (inactive).
Turning to `COC(=O)[C@H]1[C@H](C(=O)OC)[C@@H](C)c2c(ccc3c2[nH]c2ccccc23)[C@@H]1C`, the GI50 with 786-0 was 21.2 µM (inactive); in the experiment on RXF 393, 14.1 µM (inactive); with NCI-H226 it was > 100 µM (inactive); in the experiment on NCI-H460 it was 36.8 µM (inactive); in the experiment with ACHN it was 44.5 µM (inactive); in the experiment on IGROV-1, 71.9 µM (inactive). In addition, the GI50 in the experiment with RPMI-8226 was 11.8 µM (inactive); in the experiment on OVCAR-3, 69.2 µM (inactive); in the experiment with PC-3, 37.4 µM (inactive); in the experiment with SF-539, > 100 µM (inactive); in the experiment with COLO 205, 66.7 µM (inactive); with A549 it was 31.1 µM (inactive). The GI50 in the experiment with HOP-62 was 35.6 µM (inactive); in the experiment on MCF7, 43.4 µM (inactive); in the experiment with TK-10 it was 26.4 µM (inactive); in the experiment on HCT-116, 34.6 µM (inactive); in the experiment on LOX IMVI, 22.6 µM (inactive); in the experiment with SK-MEL-2, 34.1 µM (inactive). Moreover, the GI50 is 41.2 µM (inactive) with NCI-H23 and 19.1 µM (inactive) in the experiment with HT-29.
On to `S=C(Nc1cccc(C2(N3CCCCC3)CCCCC2)c1)Nc1cccc(C2(N3CCCCC3)CCCCC2)c1`, for which the GI50 in the experiment on 786-0 was 15.2 µM (inactive); in the experiment with RXF 393 it was 13.6 µM (inactive); in the experiment with NCI-H226, 27.2 µM (inactive); with NCI-H460, 18.7 µM (inactive); in the experiment with ACHN, 23.9 µM (inactive); in the experiment with IGROV-1, 54.5 µM (inactive). For the same molecule, the GI50 in the experiment on RPMI-8226 is 10.6 µM (inactive); with OVCAR-3, 21.8 µM (inactive); with PC-3 it was 26.9 µM (inactive); in the experiment with SF-539, 15.3 µM (inactive); with COLO 205, 17.1 µM (inactive); with A549, 31.6 µM (inactive). Also, the GI50 in the experiment on HOP-62 was 39.2 µM (inactive); in the experiment with MCF7, 31.3 µM (inactive); in the experiment with TK-10, 2.69 µM (inactive); with HCT-116 it was 20.8 µM (inactive); in the experiment with LOX IMVI, 12.7 µM (inactive); in the experiment on SK-MEL-2, 18.4 µM (inactive). The results for the GI50 in the experiment with NCI-H23 and in the experiment on HT-29 were > 100 µM (inactive) and 19.4 µM (inactive), respectively.
Take `CCOc1cc2oc(C)cc(=O)c2c(OC)c1/C=N/c1ccc(Cn2c(C)nc3ccccc32)cc1`: the GI50 with 786-0, with RXF 393, in the experiment on NCI-H226, in the experiment on NCI-H460, in the experiment on ACHN and with IGROV-1 was > 100 µM (inactive) throughout. Moreover, the GI50 in the experiment on RPMI-8226, in the experiment on OVCAR-3, with PC-3, in the experiment on SF-539, in the experiment with COLO 205 and in the experiment with A549 was > 100 µM (inactive) in each case. Also, the GI50 in the experiment on HOP-62, with MCF7, in the experiment on TK-10, in the experiment on HCT-116, with LOX IMVI and in the experiment with SK-MEL-2 was > 100 µM (inactive) throughout. The GI50 in the experiment with NCI-H23 and with HT-29 was > 100 µM (inactive) each time.
As for `COc1cc2c(cc1OCCCCCOc1cc3c(cc1OC)C(=O)N1CCC[C@H]1C(=O)N3)N=C[C@@H]1CCCN1C2=O`, the GI50 in the experiment on 786-0 is 0.0762 µM (active); with RXF 393, 0.175 µM (active); in the experiment with NCI-H226, 0.166 µM (active); with NCI-H460, 0.116 µM (active); in the experiment with ACHN, 0.206 µM (active); with IGROV-1, 0.132 µM (active). The GI50 with RPMI-8226 was 0.0301 µM (active); in the experiment on OVCAR-3, 0.165 µM (active); in the experiment with PC-3 it was 0.256 µM (active); in the experiment on SF-539, 0.0224 µM (active); in the experiment on COLO 205, 0.0177 µM (active); in the experiment with A549, 0.716 µM (active). Also, the GI50 in the experiment with HOP-62 was 0.14 µM (active); in the experiment with MCF7, 0.0229 µM (active); in the experiment with TK-10 it was 0.111 µM (active); with HCT-116, 0.193 µM (active); in the experiment with LOX IMVI it was 0.0274 µM (active); with SK-MEL-2, 0.0809 µM (active). Also, the values for the GI50 in the experiment with NCI-H23 and in the experiment on HT-29 were 0.21 µM (active) and 0.116 µM (active), respectively.
